Experimental data reported in patent US20260285850A1, “SUBSTITUTED OXAZOLIDINONES AND IMIDAZOLINONES AS HERBICIDES” (FMC CORPORATION, priority 2023, published 2026).

How the values were obtained:
Type in all cases: in vivo
corn (Zea mays) [1] = assay: Test A postemergence application, visual injury rating 0-100; conditions: 10 days
How it was run: (§1)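 Compound in a non-phytotoxic, surfactant-containing solvent is applied either as a directed soil spray before seedlings emerge or onto emerged plants 2-10 cm tall; pots hold a loam-sand blend. Plants grow 10 days under greenhouse conditions and are rated by eye against untreated controls (0 no effect, 100 complete control).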

[2] = system: ryegrass, Italian (italian ryegrass, Lolium multiflorum); assay: as above; conditions: 10 days
How it was run: as §1

[3] = system: wheat (Triticum aestivum); assay: as above; conditions: 10 days
How it was run: as §1

[4] = system: galium (catchweed bedstraw, Galium aparine); assay: as above; conditions: 10 days
How it was run: as §1

[5] = system: ragweed (common ragweed, Ambrosia artemisiifolia); assay: as above; conditions: 10 days
How it was run: as §1

[6] = system: barnyardgrass (Echinochloa crus-galli); assay: as above; conditions: 10 days
How it was run: as §1

[7] = system: palmer (palmer amaranth, palmer pigweed, Amaranthus palmeri); assay: as above; conditions: 10 days
How it was run: as §1

[8] = system: oat, wild (wild oat, Avena fatua); assay: as above; conditions: 10 days
How it was run: as §1

[9] = system: horseweed (Erigeron canadensis); assay: as above; conditions: 10 days
How it was run: as §1

soybean (Glycine max) [10] = assay: as above; conditions: 10 days
How it was run: as §1

[11] = system: blackgrass (Alopecurus myosuroides); assay: as above; conditions: 10 days
How it was run: as §1

kochia (Bassia scoparia) [12] = assay: as above; conditions: 10 days
How it was run: as §1

[13] = system: green foxtail (Setaria viridis); assay: as above; conditions: 10 days
How it was run: as §1

corn (Zea mays) [14] = assay: Test A preemergence soil spray, visual injury rating 0-100; conditions: 10 days, 0 = no effect, 100 = complete control
How it was run: as §1

[15] = system: ryegrass, Italian (italian ryegrass, Lolium multiflorum); assay: as above; conditions: 10 days, 0 = no effect, 100 = complete control
How it was run: as §1

[16] = system: wheat (Triticum aestivum); assay: as above; conditions: 10 days, 0 = no effect, 100 = complete control
How it was run: as §1

[17] = system: ragweed (common ragweed, Ambrosia artemisiifolia); assay: as above; conditions: 10 days, 0 = no effect, 100 = complete control
How it was run: as §1

[18] = system: barnyardgrass (Echinochloa crus-galli); assay: as above; conditions: 10 days, 0 = no effect, 100 = complete control
How it was run: as §1

[19] = system: palmer (palmer amaranth, palmer pigweed, Amaranthus palmeri); assay: as above; conditions: 10 days, 0 = no effect, 100 = complete control
How it was run: as §1

[20] = system: oat, wild (wild oat, Avena fatua); assay: as above; conditions: 10 days, 0 = no effect, 100 = complete control
How it was run: as §1

soybean (Glycine max) [21] = assay: as above; conditions: 10 days, 0 = no effect, 100 = complete control
How it was run: as §1

[22] = system: blackgrass (Alopecurus myosuroides); assay: as above; conditions: 10 days, 0 = no effect, 100 = complete control
How it was run: as §1

kochia (Bassia scoparia) [23] = assay: as above; conditions: 10 days, 0 = no effect, 100 = complete control
How it was run: as §1

[24] = system: green foxtail (Setaria viridis); assay: as above; conditions: 10 days, 0 = no effect, 100 = complete control
How it was run: as §1

rice (Oryza sativa) = assay: Test B flooded paddy test, visual plant response rating 0-100; conditions: 250 g ai/ha, Flood, applied to paddy water, evaluated after 13 days
How it was run: (§2)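 Plants were grown to the 2-leaf stage, then pots were flooded to 3 cm above the soil and compound was applied directly to the paddy water, with that depth kept throughout.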

[25] = system: sedge, umbrella (small-flower umbrella sedge, Cyperus difformis); assay: as above; conditions: 250 g ai/ha, Flood, applied to paddy water, evaluated after 13 days
How it was run: as §2

[26] = system: barnyardgrass (Echinochloa crusgalli); assay: as above; conditions: 250 g ai/ha, Flood, applied to paddy water, evaluated after 13 days
How it was run: as §2

[27] = system: ducksalad (Heteranthera limosa); assay: as above; conditions: 250 g ai/ha, Flood, applied to paddy water, evaluated after 13 days
How it was run: as §2

[28] = 31 g ai/ha, postemergence, 0 = no effect, 100 = complete control
[29] = Postemergence, 125 g ai/ha, 0 is no effect, 100 is complete control

In the case of `CC1(C(=O)NC2C=CC(C(=O)OC3CCCC3)C2)CN(c2cc(F)cc(F)c2)C(=O)O1` (stereo not shown) [Compound 57], the “Corn plant response rating (0-100)” value (corn (Zea mays) [1]; [28]) is reported as 90, the “Corn plant response rating (0 to 100 scale)” value (corn (Zea mays) [1]; [29]) is reported as 100 and the “Ryegrass, Italian plant response rating (0-100)” value [2, 28] is reported as 90. For the same compound, the “Ryegrass, Italian plant response rating (0 to 100 scale)” value [2, 29] was 90, the “Wheat plant response rating (0-100)” value [3, 28] was 90 and the “Wheat plant response rating (0 to 100 scale)” value [3, 29] was 90. For the same compound, the “Galium plant response rating (0-100)” value [4, 28] was 80, the “Galium plant response rating (0 to 100 scale)” value [4, 29] was 80 and the “Ragweed plant response rating (0-100)” value [5, 28] was 40. For the same compound, the “Ragweed plant response rating (0 to 100 scale)” value [5, 29] was 60, the “Barnyardgrass plant response rating (0-100)” value [6, 28] was 100 and the “Barnyardgrass plant response rating (0 to 100 scale)” value [6, 29] was 100. For the same compound, the “Amaranth, Palmer plant response rating (0-100)” value [7, 28] was 20, the “Amaranth, Palmer / Pigweed, Palmer plant response rating (0 to 100 scale)” value [7, 29] was 70 and the “Oat, Wild plant response rating (0-100)” value [8, 28] was 90. The “Oat, Wild plant response rating (0 to 100 scale)” value [8, 29] was 90, the “Horseweed plant response rating (0-100)” value [9, 28] was 0 and the “Horseweed plant response rating (0 to 100 scale)” value [9, 29] was 60. The “Soybean plant response rating (0-100)” value (soybean (Glycine max) [10]; [28]) was 60, the “Soybean plant response rating (0 to 100 scale)” value (soybean (Glycine max) [10]; [29]) was 70 and the “Blackgrass plant response rating (0-100)” value [11, 28] was 90. The “Blackgrass plant response rating (0 to 100 scale)” value [11, 29] was 90, the “Kochia plant response rating (0-100)” value (kochia (Bassia scoparia) [12]; [28]) was 80 and the “Kochia plant response rating (0 to 100 scale)” value (kochia (Bassia scoparia) [12]; [29]) was 80. The “Foxtail, Green plant response rating (0-100)” value [13, 28] was 30, the “Foxtail, Green plant response rating (0 to 100 scale)” value [13, 29] was 90 and the “Corn plant response rating (0-100)” value (corn (Zea mays) [14]; 31 g ai/ha) was 10. For the same compound, the “Corn plant response rating (0 to 100 scale)” value (corn (Zea mays) [14]; 125 g ai/ha) was 90, the “Ryegrass, Italian plant response rating (0-100)” value ([15]; 31 g ai/ha) was 50 and the “Ryegrass, Italian plant response rating (0 to 100 scale)” value ([15]; 125 g ai/ha) was 100. For the same compound, the “Wheat plant response rating (0-100)” value ([16]; 31 g ai/ha) was 90, the “Wheat plant response rating (0 to 100 scale)” value ([16]; 125 g ai/ha) was 100 and the “Ragweed plant response rating (0-100)” value ([17]; 31 g ai/ha) was 0. For the same compound, the “Ragweed plant response rating (0 to 100 scale)” value ([17]; 125 g ai/ha) was 0, the “Barnyardgrass plant response rating (0-100)” value ([18]; 31 g ai/ha) was 50 and the “Barnyardgrass plant response rating (0 to 100 scale)” value ([18]; 125 g ai/ha) was 100. The “Amaranth, Palmer plant response rating (0-100)” value ([19]; 31 g ai/ha) was 10, the “Amaranth, Palmer plant response rating (0 to 100 scale)” value ([19]; 125 g ai/ha) was 70 and the “Oat, Wild plant response rating (0-100)” value ([20]; 31 g ai/ha) was 90. For the same compound, the “Oat, Wild plant response rating (0 to 100 scale)” value ([20]; 125 g ai/ha) was 90, the “Soybean plant response rating (0-100)” value (soybean (Glycine max) [21]; 31 g ai/ha) was 50 and the “Soybean plant response rating (0 to 100 scale)” value (soybean (Glycine max) [21]; 125 g ai/ha) was 80. The “Blackgrass plant response rating (0-100)” value ([22]; 31 g ai/ha) was 70, the “Blackgrass plant response rating (0 to 100 scale)” value ([22]; 125 g ai/ha) was 90 and the “Kochia plant response rating (0-100)” value (kochia (Bassia scoparia) [23]; 31 g ai/ha) was 0. For the same compound, the “Kochia plant response rating (0 to 100 scale)” value (kochia (Bassia scoparia) [23]; 125 g ai/ha) was 90, the “Foxtail, Green plant response rating (0-100)” value ([24]; 31 g ai/ha) was 0 and the “Foxtail, Green plant response rating (0 to 100 scale)” value ([24]; 125 g ai/ha) was 50. For the same compound, the “Plant response rating, Rice (0 to 100 scale, 0 is no effect and 100 is complete control)” value (rice (Oryza sativa)) was 20, the “Plant response rating, Sedge, Umbrella (0 to 100 scale, 0 is no effect and 100 is complete control)” value [25] was 55 and the “Plant response rating, Barnyardgrass (0 to 100 scale, 0 is no effect and 100 is complete control)” value [26] was 90. The “Plant response rating, Ducksalad (0 to 100 scale, 0 is no effect and 100 is complete control)” value [27] was 100.
